Test results: patent US7964539B2, “Well treatment” (Statoil ASA, priority 2004, dated 2011)
≈ marks a conversion by molar mass, not a printed value.

Experiments:
daphnia = test: Daphnia toxicity (EC50 daphnia); type: in vivo
Text: (§1) Organosilanes for use in the invention include, for example, organosilane hydrides, organosilane alkoxides and organosilane amines. Organosilane compounds have the advantage that they are typically oil-soluble and have the necessary reactivity with water. […] Organosilanes for use in the invention preferably have a biodegradability of at least 60%.

[1] = Biodegradability, tested according to OECD 306
Text: as §1

[2] = Fish toxicity (LC50 fish); settings: in vivo
Text: as §1

algae = test: Algae toxicity (IC50 algae); type: cell-based
Text: as §1

| Compound | EC50 (daphnia) [µg/mL] | biodegradability [1] [%] | LC50 [2] [µg/mL] | IC50 (algae) [µg/mL] |
| --- | --- | --- | --- | --- |
| CCO[Si](CCCN)(OCC)OCC [DYNASYLAN AMEO, 3-amino-propyltriethoxysilane] | 331 (≈ 1500 µM) | 67 | 934 (≈ 4220 µM) | 603 (≈ 2720 µM) |
| CCO[Si](CCCNCCC[Si](OCC)(OCC)OCC)(OCC)OCC [DYNASYLAN bis-AMEO, bis(triethoxysilylpropyl)amine] | > 200 | 64.5 | > 200 | 125 (≈ 294 µM) |
